31 compounds from ChEMBL document CHEMBL1155200, “Structure-activity relationships of the 1-amino-3-(1H-indol-1-yl)-3-phenylpropan-2-ol series of monoamine reuptake inhibitors” (Bioorg Med Chem Lett, 2009) can be followed below.

The IC50 is the midpoint of a concentration-inhibition curve. As a reminder, the inhibition is how much of the control response was suppressed. Low values mean a weak effect, high ones a strong effect. A word on the bioavailability: it is dose-corrected exposure relative to a reference, in per cent. The low end stands for little systemic uptake, the high end for much systemic uptake. For orientation: Cmax means the peak of the concentration-time curve.

Series [1] is filed under the species Homo sapiens. The experiment in a line: Selectivity ratio, IC50 for human SERT to IC50 for human NET.
Series [2] has as its target Sodium-dependent serotonin transporter (Homo sapiens, UniProt P31645). The class given is cell-based, JAR.
Description: Inhibition of human SERT expressed in JAR cells
The target of series [3] is Sodium-dependent noradrenaline transporter (Homo sapiens, UniProt P23975).
Description: Inhibition of human NET expressed in MDCK-Net6 cells
Series [4] concerns the target Sodium-dependent dopamine transporter (Homo sapiens) (UniProt Q01959). The series is described as follows: Displacement of [3H]WIN-35428 from human DAT expressed in CHO cells. The conditions noted are these: concentration not given here. In kind it is cell-based. Background: Displacement assays read how much labelled ligand stays bound in the presence of the test substance.

Series [5] is described as follows: Ratio of AUC in brain to AUC in plasma in rat at 10 mg/kg, po and 2 mg/kg, iv. The class given is ADME, organism-based. As to conditions: read-out: Ratio AUC.
Series [6] can be described thus: Plasma concentration in rat at 10 mg/kg, po after 8 hrs. The class given is ADME, organism-based. More on the design: dose 10 mg/kg, route oral.
Series [7] relates to Rattus norvegicus. The experiment in a line: Effect on temperature homeostasis in ovariectomized-induced thermoregulatory dysfunction telemetric Sprague-Dawley rat model assessed as duration of tail skin temperature reduction at 30 mg/kg, po. In kind it is functional.
The subject of series [8] is Rattus norvegicus. The series is described as follows: Effect on temperature homeostasis in ovariectomized-induced thermoregulatory dysfunction telemetric Sprague-Dawley rat model assessed as mean reduction in tail skin temperature at 30 mg/kg, po. The class given is functional.
Series [9] concerns Rattus norvegicus. The experiment in a line: Effect on temperature homeostasis in ovariectomized-induced thermoregulatory dysfunction in telemetric Sprague-Dawley rat model assessed as duration of tail skin temperature reduction at 10 mg/kg, po. The class given is functional.
A short description of series [10]: Oral bioavailability in rat at 10 mg/kg. In kind it is ADME, organism-based. The conditions noted are these: in vivo.
The nature of series [11]: Cmax in rat at 10 mg/kg, po after 8 hrs. More on the design: dose 10 mg/kg, route oral. As to conditions: in vivo. The class given is ADME, organism-based.
In series [12] the test system is Rattus norvegicus. The series is described as follows: Effect on temperature homeostasis in ovariectomized-induced thermoregulatory dysfunction in telemetric Sprague-Dawley rat model assessed as duration of onset activity in tail skin temperature reduction at 30 mg/kg, po. In kind it is functional.
Series [13] relates to Rattus norvegicus. The experiment in a line: Effect on temperature homeostasis in ovariectomized-induced thermoregulatory dysfunction in telemetric Sprague-Dawley rat model assessed as duration of onset activity in tail skin temperature reduction at 10 mg/kg, po. In kind it is functional.
In series [14] the test system is Rattus norvegicus. The series is described as follows: Effect on temperature homeostasis in ovariectomized-induced thermoregulatory dysfunction telemetric Sprague-Dawley rat model assessed as maximum reduction in tail skin temperature at 30 mg/kg, po. The class given is functional.
For series [15], the system named is Rattus norvegicus. The series is described as follows: Effect on temperature homeostasis in ovariectomized-induced thermoregulatory dysfunction telemetric Sprague-Dawley rat model assessed as mean reduction in tail skin temperature at 10 mg/kg, po. In kind it is functional.
Series [16] deals with Rattus norvegicus. The experiment in a line: Effect on temperature homeostasis in ovariectomized-induced thermoregulatory dysfunction telemetric Sprague-Dawley rat model assessed as maximum reduction in tail skin temperature at 10 mg/kg, po. The class given is functional.

Sodium-dependent noradrenaline transporter, sequence (P23975 whole entry): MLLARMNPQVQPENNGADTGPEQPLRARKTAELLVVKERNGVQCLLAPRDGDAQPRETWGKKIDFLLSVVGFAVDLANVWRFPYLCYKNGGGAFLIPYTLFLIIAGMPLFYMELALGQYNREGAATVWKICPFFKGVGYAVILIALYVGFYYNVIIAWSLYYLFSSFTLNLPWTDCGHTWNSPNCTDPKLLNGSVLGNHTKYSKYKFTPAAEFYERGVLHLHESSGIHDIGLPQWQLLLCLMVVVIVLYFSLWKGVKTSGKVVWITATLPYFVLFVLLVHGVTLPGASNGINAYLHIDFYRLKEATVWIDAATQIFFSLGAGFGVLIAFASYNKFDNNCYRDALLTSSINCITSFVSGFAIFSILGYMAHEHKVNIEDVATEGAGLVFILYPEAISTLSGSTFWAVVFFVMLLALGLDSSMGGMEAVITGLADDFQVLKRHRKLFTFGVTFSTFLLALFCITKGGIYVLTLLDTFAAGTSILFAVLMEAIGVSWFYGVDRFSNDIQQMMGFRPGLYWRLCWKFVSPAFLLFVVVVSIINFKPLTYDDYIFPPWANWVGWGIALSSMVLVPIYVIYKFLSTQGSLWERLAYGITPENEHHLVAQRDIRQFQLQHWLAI
Sodium-dependent dopamine transporter (Homo sapiens), sequence (Q01959 whole entry): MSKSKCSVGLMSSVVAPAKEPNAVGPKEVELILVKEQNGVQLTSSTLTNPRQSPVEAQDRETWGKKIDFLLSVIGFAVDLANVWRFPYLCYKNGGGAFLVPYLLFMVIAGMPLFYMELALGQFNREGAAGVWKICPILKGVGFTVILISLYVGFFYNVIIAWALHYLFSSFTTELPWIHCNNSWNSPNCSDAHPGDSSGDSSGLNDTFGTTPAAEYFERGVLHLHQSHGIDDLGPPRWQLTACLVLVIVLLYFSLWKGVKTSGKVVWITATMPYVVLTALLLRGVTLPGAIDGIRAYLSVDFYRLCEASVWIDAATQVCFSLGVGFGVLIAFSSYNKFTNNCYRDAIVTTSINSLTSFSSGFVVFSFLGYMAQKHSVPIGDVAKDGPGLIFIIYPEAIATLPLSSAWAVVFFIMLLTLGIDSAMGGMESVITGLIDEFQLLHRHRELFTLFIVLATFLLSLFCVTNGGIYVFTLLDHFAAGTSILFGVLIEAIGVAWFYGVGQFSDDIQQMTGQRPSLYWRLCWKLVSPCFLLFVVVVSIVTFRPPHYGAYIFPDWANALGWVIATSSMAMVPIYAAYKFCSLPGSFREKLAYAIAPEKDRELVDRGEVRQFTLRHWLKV
Sodium-dependent serotonin transporter, sequence (P31645 whole entry): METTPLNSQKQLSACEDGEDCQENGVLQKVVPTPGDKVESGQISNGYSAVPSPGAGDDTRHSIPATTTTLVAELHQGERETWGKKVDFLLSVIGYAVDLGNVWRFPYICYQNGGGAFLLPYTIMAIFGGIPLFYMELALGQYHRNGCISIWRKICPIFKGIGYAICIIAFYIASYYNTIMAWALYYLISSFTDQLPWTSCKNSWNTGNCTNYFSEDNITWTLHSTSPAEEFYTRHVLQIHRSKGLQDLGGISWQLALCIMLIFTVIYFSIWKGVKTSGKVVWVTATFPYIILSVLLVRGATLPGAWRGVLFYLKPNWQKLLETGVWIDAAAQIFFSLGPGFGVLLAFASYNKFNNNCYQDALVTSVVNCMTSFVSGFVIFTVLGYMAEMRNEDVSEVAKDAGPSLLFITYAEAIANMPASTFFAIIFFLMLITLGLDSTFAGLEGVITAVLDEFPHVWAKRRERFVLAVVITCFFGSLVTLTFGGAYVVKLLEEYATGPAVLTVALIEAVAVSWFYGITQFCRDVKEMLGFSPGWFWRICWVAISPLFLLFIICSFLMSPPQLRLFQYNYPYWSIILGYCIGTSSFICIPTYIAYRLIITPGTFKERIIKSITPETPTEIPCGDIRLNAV

As for `CNC[C@@H](O)[C@H](c1cccc(F)c1)n1ccc2c(Br)cccc21`, the Ratio IC50 in [1] was 4. The half-maximal inhibitory concentration (IC50) came out at 0.207 µM in series [2] and 0.052 µM in [3]. The inhibition in [4] came out at 24%.
On the same counts, the results for `CNC[C@@H](O)[C@H](c1cccc(F)c1)n1ccc2c(C)cccc21` are 15, 0.228 µM, 0.015 µM and 4%.
In the same order, the values of `CNC[C@@H](O)[C@H](c1ccccc1C)n1ccc2ccccc21` are 1, 0.266 µM, 0.232 µM and 11%.
Consider `CNC[C@@H](O)[C@H](c1cccc(C)c1)n1ccc2ccccc21`, for which, in series [1], the Ratio IC50 was 8. For the same compound, the IC50 is 0.377 µM in [2] and 0.049 µM in [3]. Further, in series [4], the inhibition was 8%.
In the same order, the values of `CNC[C@@H](O)[C@H](c1cccc(F)c1)n1ccc2cccc(Cl)c21` are 2, 0.048 µM, 0.021 µM and 0%.
In the same order, the values of `CNC[C@@H](O)[C@H](c1ccccc1Cl)n1ccc2ccccc21` are 4, 1.33 µM, 0.304 µM and 7%.
As for `CNCC[C@H](c1cccc(F)c1)n1ccc2ccccc21`, the Ratio IC50 in series [1] was 0.2. The IC50 is 0.014 µM in series [2] and 0.091 µM in series [3]. In series [4], the inhibition is 52%.
`CNC[C@@H](O)[C@H](c1ccc(F)cc1)n1ccc2ccccc21`: the Ratio IC50 in series [1] is 16. In addition, the IC50 in series [2] turned out to be 1.37 µM; in series [3], 0.084 µM. This compound also registered an inhibition in series [4] of 11%.
In the same order, the values of `CNC[C@@H](O)[C@H](c1cccc(Cl)c1)n1ccc2ccccc21` are 34, 0.554 µM, 0.016 µM and 20%.
Consider `CNC[C@@H](O)[C@H](c1ccc(Cl)cc1)n1ccc2ccccc21`, for which, in [1], the Ratio IC50 came out at 1. The IC50 in [2] came to 0.748 µM; in series [3], 0.527 µM. In series [4], the inhibition was 16%.
On the same counts, the results for `CNC[C@@H](O)[C@H](c1cccc(F)c1)n1ccc2cc(C)ccc21` are 2, 0.048 µM, 0.021 µM and 0%.
In the same order, the values of `CNC[C@@H](O)[C@H](c1cccc(F)c1)n1ccc2cc(F)ccc21` are 4, 0.078 µM, 0.022 µM and 9%.
In the same order, the values of `CNC[C@@H](O)[C@H](c1cccc(F)c1)n1ccc2cccc(Br)c21` are 5, 0.113 µM, 0.021 µM and 0%.
In the case of `CNC[C@@H](O)[C@H](c1cccc(F)c1)n1ccc2ccccc21`, the Ratio IC50 in series [1] was 40. Moreover, the IC50 came to 0.441 µM in [2] and 0.011 µM in [3]. For the same compound, in [4], the inhibition was found to be 23%.
On the same counts, the results for `CNC[C@@H](O)[C@H](c1cccc(Br)c1)n1ccc2ccccc21` are 39, 0.547 µM, 0.014 µM and 13%.
On the same counts, the results for `CNC[C@@H](O)[C@H](c1cccc(F)c1)n1ccc2c(Cl)cccc21` are 3, 0.221 µM, 0.064 µM and 12%.
In the case of `CNC[C@@H](O)[C@H](c1cccc(F)c1)n1cc(C)c2ccccc21`, the Kp in [5] worked out at 3.5. For the same compound, the Ratio IC50 in series [1] is 86. The same compound registered a concentration at 8 h in series [6] of 40 nM. For the same compound, the Activity in [7] was 10.5 h; in series [8], -3.8 °C; in series [12], 0.5 h; in [13], 1 h; in series [14], -7 °C; in series [15], -1.5 °C. Also, the Activity in series [16] was -2.3 °C. In addition, in series [9], the Time was 5 h. For the same compound, the bioavailability in series [10] amounted to 6%. Besides, the Cmax in series [11] came out at 87 ng/mL. Also, the IC50 in series [2] came to 0.343 µM; in [3] it was 0.004 µM. In addition, the inhibition in [4] is 8%.
Regarding `CNC[C@@H](O)[C@H](c1cccc(F)c1)n1ccc2ccc(Br)cc21`, in series [1], the Ratio IC50 came out at 8. In addition, the concentration for half-maximal inhibition (IC50) came to 1 µM in [2] and 0.124 µM in [3]. The inhibition in [4] was 12%.
In the same order, the values of `CNC[C@@H](O)[C@H](c1cccc(OC)c1)n1ccc2ccccc21` are 8, 0.882 µM, 0.111 µM and 0%.
For `CNC[C@@H](O)[C@H](c1cccc(F)c1)n1ccc2cccc(F)c21`, in [1], the Ratio IC50 was 25. In addition, the 50% inhibitory concentration (IC50) in series [2] turned out to be 0.175 µM; in [3] it was 0.007 µM. Further, in series [4], the inhibition is 8%.
`CCc1cn([C@@H](c2cccc(F)c2)[C@H](O)CNC)c2ccccc12`: the Ratio IC50 in series [1] came out at 83. Further, the IC50 in [2] stood at 0.834 µM; in series [3] it was 0.01 µM. In [4], this compound showed an inhibition of 0%.
Consider `CNC[C@@H](O)[C@H](c1cccc(F)c1)n1ccc2cccc(C)c21`, for which the Ratio IC50 in series [1] was 29. Besides, the IC50 amounted to 0.527 µM in series [2] and 0.018 µM in series [3]. The inhibition in series [4] was found to be 7%.
On the same counts, the results for `CNC[C@@H](O)[C@H](c1ccc(C)cc1)n1ccc2ccccc21` are 3, 0.398 µM, 0.117 µM and 0%.
On to `CNC[C@@H](O)[C@H](c1cccc(F)c1)n1ccc2c(F)cccc21`, for which, in series [1], the Ratio IC50 was 26. The figures for the concentration for half-maximal inhibition (IC50) in series [2] and in series [3] were 0.417 µM and 0.016 µM, respectively. Moreover, in [4], the inhibition came out at 3%.
In the same order, the values of `CNC[C@@H](O)[C@H](c1cccc(C(F)(F)F)c1)n1ccc2ccccc21` are 40, 2.18 µM, 0.054 µM and 14%.
With `CNC[C@@H](O)[C@H](c1ccccc1F)n1ccc2ccccc21`, the Ratio IC50 in [1] amounted to 5. Besides, the half-inhibitory concentration (IC50) in series [2] was found to be 0.473 µM; in series [3], 0.092 µM. This compound had an inhibition in series [4] of 4%.
On the same counts, the results for `CNC[C@@H](O)[C@H](c1cccc(F)c1)n1ccc2cc(Cl)ccc21` are 1, 0.079 µM, 0.06 µM and 6%.
Consider `CNC[C@@H](O)[C@H](c1cccc(F)c1)n1ccc2cc(Br)ccc21`, for which, in series [1], the Ratio IC50 was 1. The values for the IC50 in series [2] and in series [3] were 0.052 µM and 0.06 µM, respectively. In [4], the inhibition came to 10%.
In the same order, the values of `CNC[C@@H](O)[C@H](c1cccc(F)c1)n1ccc2ccc(Cl)cc21` are 9, 0.865 µM, 0.092 µM and 9%.
Take `CNCC[C@H](c1ccccc1)n1ccc2ccccc21`: the Ratio IC50 in series [1] was 14. Further, the results for the IC50 in [2] and in [3] were 0.491 µM and 0.034 µM, respectively. In series [4], the inhibition is 44%.
In the case of `CNC[C@@H](O)[C@H](c1cccc(F)c1)n1ccc2ccc(F)cc21`, in series [1], the Ratio IC50 turned out to be 31. Further, the IC50 in series [2] stood at 0.626 µM; in series [3], 0.02 µM. Moreover, in series [4], the inhibition worked out at 15%.
